Like-named read-outs stand apart in the source and are kept apart here.
Assays:
[1] = target: T1, progesterone receptor (PR) (Homo sapiens, UniProt P06401); assay: U2-OS PR cell line (pSG5-hPR, 3×HRE-TATA-Luc reporter); format: cell-based
T1 construct: expressed in transfected cells; host or cells: human U2-OS cells, stably transfected with pSG5-hPR
T1 sequence (P06401 1-933): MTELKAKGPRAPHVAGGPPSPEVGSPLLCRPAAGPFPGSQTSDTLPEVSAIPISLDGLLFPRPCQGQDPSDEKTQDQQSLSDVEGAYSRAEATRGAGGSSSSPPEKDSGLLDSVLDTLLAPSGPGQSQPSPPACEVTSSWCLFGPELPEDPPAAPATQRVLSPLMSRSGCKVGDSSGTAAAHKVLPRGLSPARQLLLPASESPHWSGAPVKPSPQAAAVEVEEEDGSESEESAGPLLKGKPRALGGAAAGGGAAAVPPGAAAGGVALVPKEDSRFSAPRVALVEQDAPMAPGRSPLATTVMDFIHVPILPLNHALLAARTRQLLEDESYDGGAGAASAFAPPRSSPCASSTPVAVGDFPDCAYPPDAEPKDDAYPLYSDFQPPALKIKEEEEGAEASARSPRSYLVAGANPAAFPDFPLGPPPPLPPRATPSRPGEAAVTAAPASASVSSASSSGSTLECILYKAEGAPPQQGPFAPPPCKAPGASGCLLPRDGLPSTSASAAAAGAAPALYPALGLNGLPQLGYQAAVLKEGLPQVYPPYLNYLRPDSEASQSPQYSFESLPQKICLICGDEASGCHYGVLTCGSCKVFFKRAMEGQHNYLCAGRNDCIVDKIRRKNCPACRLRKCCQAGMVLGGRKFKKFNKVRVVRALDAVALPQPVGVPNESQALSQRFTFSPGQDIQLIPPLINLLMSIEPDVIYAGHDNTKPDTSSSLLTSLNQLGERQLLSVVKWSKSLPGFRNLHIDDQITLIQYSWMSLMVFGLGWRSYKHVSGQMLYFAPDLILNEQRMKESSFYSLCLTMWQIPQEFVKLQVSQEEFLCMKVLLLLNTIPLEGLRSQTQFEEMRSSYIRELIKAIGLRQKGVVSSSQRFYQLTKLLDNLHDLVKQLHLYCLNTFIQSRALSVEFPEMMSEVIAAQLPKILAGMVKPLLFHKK
Description: Reporter constructs were made using specific synthetic multimerized hormone responsive elements which were cloned upstream of the synthetic TATA box in the pGL3-TATA-Luc vector. Stable transfected cell lines were made, when necessary co-transfected with a specific receptor-containing expression plasmid pSG5.
The reporter construct comprises 3 tandem repeats of the hormone responsive element (HRE) oligonucleotide:
upstream of the minimal adenovirus E1B TATA promotor sequence ([…]) inserted in the multiple cloning site of the luciferase reporter construct pGL3 (as described in Legler et al., supra).
In order to determine the responsiveness of the U2-OS based steroid reporter cell lines, cells were plated in 96-wells plates and treated for 24 hours with hormone in the culture medium containing 5% charcoal-stripped serum.
The PR cell line was generated by stably transfecting the human U2-OS cell line with pSG5-hPR and the 3×HRE-TATA-Luc reporter constructs.

ER-alpha = target: T2, ER-alpha (Homo sapiens, UniProt P03372); assay: U2-OS ER-alpha luciferase reporter cell line; format: cell-based
T2 construct: expressed in transfected cells
T2 sequence (P03372 1-595): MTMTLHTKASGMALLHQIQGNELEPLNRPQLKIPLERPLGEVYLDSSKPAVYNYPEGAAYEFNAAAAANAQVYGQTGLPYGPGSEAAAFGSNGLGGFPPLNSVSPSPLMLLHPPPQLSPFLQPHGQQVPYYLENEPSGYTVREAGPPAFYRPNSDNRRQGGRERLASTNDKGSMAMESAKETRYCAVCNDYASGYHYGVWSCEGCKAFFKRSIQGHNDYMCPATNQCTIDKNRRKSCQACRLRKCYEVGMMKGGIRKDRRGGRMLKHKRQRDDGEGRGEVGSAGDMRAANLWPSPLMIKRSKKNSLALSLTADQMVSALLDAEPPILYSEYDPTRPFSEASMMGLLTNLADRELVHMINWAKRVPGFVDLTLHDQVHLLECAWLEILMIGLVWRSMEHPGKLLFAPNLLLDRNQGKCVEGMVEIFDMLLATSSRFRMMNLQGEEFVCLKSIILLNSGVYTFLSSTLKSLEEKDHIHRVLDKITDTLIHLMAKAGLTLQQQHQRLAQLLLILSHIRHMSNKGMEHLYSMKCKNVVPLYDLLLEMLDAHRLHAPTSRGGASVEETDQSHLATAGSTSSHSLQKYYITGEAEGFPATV

C[C@]12CC[C@H](O)CC1=CC[C@@H]1[C@@H]2CC[C@]2(C)C(=O)CC[C@@H]12 [DHEA]
potency (logEC50) PR ([1]; logEC50, U2-OS reporter cell line, 24 hours with hormone, 5% charcoal-stripped serum): >−5.0

C[C@@H]1C[C@H]2[C@@H]3CCC4=CC(=O)C=C[C@]4(C)[C@@]3(F)[C@@H](O)C[C@]2(C)[C@@]1(O)C(=O)CO [Dexamethasone]
EC50 ([1]; logEC50, U2-OS reporter cell line, 24 hours with hormone, 5% charcoal-stripped serum, read-out: potency (logEC50) PR (converted)): > 10 µM

C[C@]12CC[C@H]3[C@@H](CCC4=CC(=O)CC[C@@H]43)[C@@H]1CC[C@@H]2O [Nandrolone]
EC50 (ER-alpha): 0.0398 µM | EC50 [1]: 0.00501 µM

C[C@]1(O)CC[C@H]2[C@@H]3CCC4=CC(=O)CCC4=C3C=C[C@@]21C [R1881]
EC50 (ER-alpha): > 10 µM

C[C@]12CCC(=O)C=C1CC[C@@H]1[C@@H]2CC[C@]2(C)C(=O)CC[C@@H]12 [androstenedione]
EC50 (ER-alpha): > 10 µM

C[C@]12CCC(=O)C[C@@H]1CC[C@@H]1[C@@H]2CC[C@]2(C)[C@@H](O)CC[C@@H]12 [dihydro-testosterone, 5α-dihydro-testosterone]
EC50 [1]: 3.98 µM

C[C@]12CC[C@H]3[C@@H](CCC4=CC(=O)CC[C@@]43C)[C@@H]1CC[C@@H]2O [testosterone]
EC50 [1]: 7.94 µM

Source: patent US20070141568A1, “Method for determining the presence of one or more ligands in a sample” (BioDetection Systems B.V., priority 2002, published 2007)
